Results as given in the supplement of paper PMC10307832.

Key:
Test in all cases: relative viability (nuclei count vs DMSO), 5 days (fraction); higher = more cells survive
AGI-6780 = compound: O=C(Nc1cccc(C(F)(F)F)c1)Nc1cc(S(=O)(=O)NC2CC2)ccc1-c1ccsc1 [AGI-6780]
Procedure, shortened: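 Cells of lung cancer lines were placed in 1536-well plates and kept overnight at 37 °C. Pinning then delivered five library-drug doses (not always all listed), spaced by √10, onto plates anchored with vehicle, and the cells were left 5 days without changing medium. One step fixed, permeabilised and stained them with Hoechst, and MetaXpress counted nuclei in 4× images. Viability, as a median over plates, is treated-well nuclei divided by vehicle-well nuclei, with acceptance only at control CV below 25% and at least one doubling.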

AGI-6780 + Palbociclib = compound: O=C(Nc1cccc(C(F)(F)F)c1)Nc1cc(S(=O)(=O)NC2CC2)ccc1-c1ccsc1 [AGI-6780] + CC(=O)c1c(C)c2cnc(Nc3ccc(N4CCNCC4)cn3)nc2n(C2CCCC2)c1=O [Palbociclib] (partner 0.5 µM)
Procedure, shortened: (§1)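 Five library-drug doses in √10 steps were combined with a fixed anchor-drug dose, or a single drug was given alone, by pin tool to lung cancer cell lines in 1536-well plates the day after seeding. Nuclei were stained and counted after 5 days. Relative viability is the nuclei count in treated wells over that in vehicle wells, taken as the median of duplicate plates.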

AGI-6780 + Foretinib = compound: O=C(Nc1cccc(C(F)(F)F)c1)Nc1cc(S(=O)(=O)NC2CC2)ccc1-c1ccsc1 [AGI-6780] + COc1cc2c(Oc3ccc(NC(=O)C4(C(=O)Nc5ccc(F)cc5)CC4)cc3F)ccnc2cc1OCCCN1CCOCC1 [Foretinib] (partner 0.25 µM)
Procedure, shortened: as §1

AGI-6780 + OSI-027 = compound: O=C(Nc1cccc(C(F)(F)F)c1)Nc1cc(S(=O)(=O)NC2CC2)ccc1-c1ccsc1 [AGI-6780] + COc1cccc2cc(-c3nc([C@H]4CC[C@H](C(=O)O)CC4)n4ncnc(N)c34)[nH]c12 [OSI-027] (partner 0.5 µM)
Procedure, shortened: as §1

Cell Line	relative viability (AGI-6780; 0.08 µM)	relative viability (AGI-6780; 0.253 µM)	relative viability (AGI-6780; 0.8 µM)	relative viability (AGI-6780; 2.53 µM)	relative viability (AGI-6780; 8 µM)	relative viability (AGI-6780 + Palbociclib; first compound 0.08 µM)	relative viability (AGI-6780 + Palbociclib; first compound 0.253 µM)	relative viability (AGI-6780 + Palbociclib; first compound 0.8 µM)	relative viability (AGI-6780 + Palbociclib; first compound 2.53 µM)	relative viability (AGI-6780 + Palbociclib; first compound 8 µM)	relative viability (AGI-6780 + Foretinib; first compound 0.08 µM)	relative viability (AGI-6780 + Foretinib; first compound 0.253 µM)	relative viability (AGI-6780 + Foretinib; first compound 0.8 µM)	relative viability (AGI-6780 + Foretinib; first compound 2.53 µM)	relative viability (AGI-6780 + Foretinib; first compound 8 µM)	relative viability (AGI-6780 + OSI-027; first compound 0.08 µM)	relative viability (AGI-6780 + OSI-027; first compound 0.253 µM)	relative viability (AGI-6780 + OSI-027; first compound 0.8 µM)	relative viability (AGI-6780 + OSI-027; first compound 2.53 µM)	relative viability (AGI-6780 + OSI-027; first compound 8 µM)
201T	0.996	1	0.997	0.989	0.995	0.359	0.367	0.353	0.329	0.344	1.09	1.08	1.2	1.09	1.05	0.713	0.694	0.723	0.325	0.753
A-427	0.994	0.919	1.1	0.815	1.04		0.504	0.548	0.462	0.491	0.991	0.951	1.15	0.825	1.19	0.477	0.458	0.507	0.384	0.509
ABC-1	0.799	1.06	1.08	0.851	0.901		0.666	0.846	0.608	0.905	1.13	1.17	1.11	1.07	0.941	0.469	0.524	0.688	0.55	0.595
BEN	0.834	0.959	1.04		0.957	0.488	0.429	0.457		0.502	0.481	0.654	0.662	0.533	0.619	0.311	0.298	0.321	0.28	0.304
CAL-12T	0.962	1.02	1.18	1.03	1.07	0.407	0.465	0.651	0.46	0.367	1	1.15	1.13	1.34	1.11	0.748	0.76	0.693	0.428	0.519
COR-L23	1.05	1.12	0.949	1.06	1.01	0.322	0.257	0.298	0.277	0.329	1.03	0.948	0.883	1.06	0.837	0.743	0.77	0.705	0.527	0.784
COR-L 105	0.985	0.943	1	0.881	1.02	0.395	0.301	0.417	0.371	0.37	1.09	0.922	0.962	1.25	0.981	0.783	0.669	0.719	0.582	0.72
Calu-6	1.03	1.01	1.07	0.993	1.03						0.88	0.871	0.96	0.89	0.885					
ChaGo-K-1	1.01	1.02	1.06	0.921	1	0.951	0.968	0.921	0.921	0.898	0.986	0.977	0.946	0.751	0.948	0.521	0.613	0.577	0.42	0.547
EBC-1	1.07	1.04	0.985	1	1						0.104	0.105	0.106	0.11	0.104					
EKVX	0.986	1.03	0.938	0.799	0.969	0.411	0.368	0.368	0.352	0.406	0.684	0.91	0.756	0.399	0.849	0.663	0.665	0.721	0.649	0.716
EMC-BAC-2		1.01	1.01	0.775	1.05		0.535	0.487	0.437	0.543	1.05	1.04	0.961	0.842	1.18	0.383	0.384	0.338	0.301	0.427
EPLC-272H	0.774	1.15	1.12	0.807	0.927	0.318	0.356	0.318	0.337	0.329		0.762	0.891	0.489	0.619		0.282	0.247	0.245	0.293
H3255	0.956	1.03	1.04	0.826	0.97	0.292	0.304	0.307	0.315	0.31	0.928	0.798	1.03	0.909	0.85	0.667	0.55	0.551	0.523	0.584
HARA	1.04	1.15	1.02	0.942	1.17	0.235	0.271	0.167	0.257	0.278	0.957	0.864	0.963	0.83	0.91	0.573	0.594	0.339	0.197	0.514
HCC-15	1.09	1.06	1.1	0.808	1.05	0.787	0.649	0.689	0.718	0.728	1.1	1.03	1.1	0.871	0.968	0.743	0.763	0.783	0.458	0.725
HCC-44	0.955	1.01	0.995	1.04	0.959	0.969	0.978	0.959	0.99	0.966						0.628	0.719	0.477	0.47	0.594
HCC-78	0.876	1.04	1.05	0.982	1.02	0.457	0.395	0.443	0.42	0.458		0.53	0.676	0.606	0.688		0.37	0.431	0.364	0.355

Cell Line	relative viability (AGI-6780; 0.08 µM)	relative viability (AGI-6780; 0.253 µM)	relative viability (AGI-6780; 0.8 µM)	relative viability (AGI-6780; 2.53 µM)	relative viability (AGI-6780; 8 µM)	relative viability (AGI-6780 + Palbociclib; first compound 0.08 µM)	relative viability (AGI-6780 + Palbociclib; first compound 0.253 µM)	relative viability (AGI-6780 + Palbociclib; first compound 0.8 µM)	relative viability (AGI-6780 + Palbociclib; first compound 2.53 µM)	relative viability (AGI-6780 + Palbociclib; first compound 8 µM)	relative viability (AGI-6780 + Foretinib; first compound 0.08 µM)	relative viability (AGI-6780 + Foretinib; first compound 0.253 µM)	relative viability (AGI-6780 + Foretinib; first compound 0.8 µM)	relative viability (AGI-6780 + Foretinib; first compound 2.53 µM)	relative viability (AGI-6780 + Foretinib; first compound 8 µM)	relative viability (AGI-6780 + OSI-027; first compound 0.08 µM)	relative viability (AGI-6780 + OSI-027; first compound 0.253 µM)	relative viability (AGI-6780 + OSI-027; first compound 0.8 µM)	relative viability (AGI-6780 + OSI-027; first compound 2.53 µM)	relative viability (AGI-6780 + OSI-027; first compound 8 µM)
HCC-366	1.01	1.08	1.01	0.96	1.02	0.369	0.388	0.41	0.29	0.405	0.857	0.951	0.96	0.881	0.828	1.02	1.09	0.926	0.595	1
HCC-827	1.06	1.06	1.01	1.07	1.02	0.485	0.488	0.478	0.466	0.481	1.09	1.09	1.1	0.938	1.03	0.68	0.705	0.824	0.673	0.798
HOP-62	1.03	1.01	0.994	0.984	1.03	0.375	0.47	0.516	0.467	0.543	1.08	1.06	1.14	1.16	1.15	0.886	0.906	0.884	0.715	1.01
LC-2-ad	1.02	1.05	1.1	0.96	0.996	0.536	0.525	0.524	0.526	0.463	0.939	0.849	1.04	0.913	0.901	0.829	0.875	0.874	0.638	0.794
LCLC-97TM1	0.959	0.983	1.03	0.758	0.966	0.197	0.223	0.235	0.212	0.207	1.09	0.929	0.929	0.864	0.84	0.596	0.697	0.492	0.398	0.643
LCLC-103H	1.05	1.08	0.963	0.861	0.941	0.487	0.476	0.526	0.445	0.463	0.883	0.745	0.702	0.652	0.748	0.554	0.518	0.45	0.38	0.491
LK-2	0.945	1.02	1.08		1.16	0.671	0.643	0.823		0.679	1.23	1.15	1.21		1.53	0.172	0.224	0.189		0.197
LOU-NH91	0.953	0.992	1.04	0.923	0.961	0.529	0.528	0.521	0.515	0.55	0.946	0.908	0.961	0.93	0.893	0.739	0.705	0.676	0.621	0.709
LU99A	0.975	0.928	0.987	0.839	0.931	0.417	0.435	0.494	0.334	0.452	0.915	0.813	0.874	0.633	0.738	0.339	0.304	0.28	0.255	0.31
LXF-289	0.994	1.01	1.02	1.13	0.984	0.606	0.65	0.586	0.586	0.6	1	1	1.04	0.954	0.934	0.862	0.843	0.844	0.666	0.921
NCI-H23	0.927	1.11	0.9	0.796	1.16	0.437	0.528	0.457	0.394	0.541	1.12	0.968	1.02	0.96	0.865	0.705	0.623	0.747	0.346	0.672
NCI-H596	0.96	0.954	0.87	0.724	1.12						0.978	1.01	0.788		1.06	0.803	0.841	0.643		0.647
NCI-H1299	1	0.98	0.955	1.04	1.01						1.09	1.07	1.07	1.05	1.12					
NCI-H1563	0.999	1.02	0.949	0.87	0.98						0.901	0.977	1.02	0.89	0.992	0.784	0.752	0.805	0.666	0.728
NCI-H1648	0.735	0.999	0.983	0.942	1.08	0.242	0.232	0.335	0.26	0.25						0.26	0.292	0.258	0.277	0.242
NCI-H1703	0.949	0.84	1.02	0.823	0.807							0.327	0.333	0.36	0.393					
NCI-H1792	0.856	1.22	0.946	0.727	0.986		0.574	0.668	0.66	0.615							0.71	0.704	0.663	0.643
